Values of other authors, collected in patent US6765009B2, “1,4-Disubstituted benzo-fused compounds” (Boehringer Ingelheim Pharmaceuticals, Inc., priority 2001, dated 2004).

What was measured:
[1] = tested on: closed brain injury; details: experimental model
[2] = tested on: rheumatoid arthritis; details: Phase III clinical trial
[3] = tested on: septic shock syndrome; details: phase III human clinical trial

Compound: CCCCCCC(C)(C)c1cc(O)c2c(c1)OC(C)(C)[C@H]1CC=C(CO)C[C@H]21 [HU-211]
- outcome of closed brain injury [1]: improve the outcome

Compound: Enbrel
- efficacy in treatment of rheumatoid arthritis [2]: demonstrated efficacy

Compound: IL-1ra: "IL-1 receptor antagonist (IL-1ra) had been examined in human clinical trials" ... "(Antril, Amgen)"
- mortality rate in patients with septic shock syndrome [3]: reduced the mortality rate
